# In PubChem BioAssay (NCI):
# Several values for one entry are separate records, joined by “and”; a condition that tells them apart may be missing. Equal values may be shown once.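 Assay format: 96-well plates, 48-hour exposure. GI50 marks 50% less growth. TGI marks complete inhibition of growth.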
# Assays:
# Assay in all cases: DTP human tumour cell line panel, 48 h
# NCI-H226 lung = test system: NCI-H226 lung
# HOP-62 NSCLC = test system: HOP-62 NSCLC
# K-562 leukemia = test system: K-562 leukemia
# U251 CNS = test system: U251 CNS
# LOX IMVI melanoma = test system: LOX IMVI melanoma
# SW-620 colon = test system: SW-620 colon
# MDA-MB-231 breast = test system: MDA-MB-231 breast
# RPMI-8226 leukemia = test system: RPMI-8226 leukemia
# MALME-3M melanoma = test system: MALME-3M melanoma
# MDA-N = test system: MDA-N
Compound,TGI (NCI-H226 lung) [µM],TGI (HOP-62 NSCLC),TGI (K-562 leukemia) [µM],TGI (U251 CNS),TGI (LOX IMVI melanoma) [µM],TGI (SW-620 colon) [µM],TGI (MDA-MB-231 breast),TGI (RPMI-8226 leukemia) [µM],TGI (MALME-3M melanoma),TGI (MDA-N) [µM],GI50 (HOP-62 NSCLC),GI50 (MALME-3M melanoma),GI50 (NCI-H226 lung) [µM],GI50 (K-562 leukemia) [µM],GI50 (U251 CNS) [µM],GI50 (LOX IMVI melanoma),GI50 (SW-620 colon) [µM],GI50 (MDA-MB-231 breast) [µM],GI50 (RPMI-8226 leukemia)
O=c1[nH]ncc2[nH]c3c(c12)CCc1ccccc1-3,40.7,> 100 µM,> 100,> 100 µM,> 100,> 100,> 100 µM,70.7,> 100 µM,–,–,–,–,–,–,–,–,–,–
COC(=O)[C@H](C)NC(=O)[C@H](NS(=O)(=O)c1nc2ccccc2s1)c1ccccc1,30.6,74.4 µM,> 100,41 µM,31.9,> 100,64.6 µM,> 100,–,–,–,–,–,–,–,–,–,–,–
CC(=O)CCC1(C(=O)OCC(C)C)CCCC1=O (stereo unspecified),> 100,> 100 µM,> 100,> 100 µM,> 100,> 100,> 100 µM,–,> 100 µM,> 100,–,–,–,–,–,–,–,–,–
CN1C(c2ccccc2)CC(O)CC1c1ccccc1 (stereo unspecified),> 100,> 100 µM,> 100,> 100 µM,> 100,> 100,–,> 100,> 100 µM,–,–,–,–,–,–,–,–,–,–
COc1c(OC2OC(CO)C(O)C(O)C2O)cc2c(c1OC)-c1ccc(OC)c(=O)cc1C(NC(C)=O)CC2 (stereo unspecified),> 100,> 100 µM,> 100,> 100 µM,> 100,> 100,–,> 100,> 100 µM,–,–,–,–,–,–,–,–,–,–
O=C(O)C1CCC(=O)N1C(=O)COc1cc(Cl)c(Cl)cc1Cl (stereo unspecified),> 100,–,–,> 100 µM,> 100,> 100,–,–,–,–,–,–,–,–,–,–,–,–,–
COC(=O)C(Cc1ccccc1)NC(=O)C(CNC(=O)OCc1ccccc1)C(=O)OCc1ccccc1 (stereo unspecified),> 100,39.9 µM and > 100 µM,> 100,> 100 µM,–,–,> 100 µM and 64.6 µM,> 100,> 100 µM,> 100,18 µM and 94.1 µM,> 100 µM and 44.4 µM,–,–,–,–,–,–,–
CCCCCCCCCCCCOCC(COP(=O)(O)OCCN=[N+]=[N-])OC(=O)CCCCCCCCCCC (stereo unspecified),–,> 100 µM,> 100,> 100 µM,–,> 100,> 100 µM,> 100,> 100 µM,> 100,–,–,–,–,–,–,–,–,–
[C-]#[O+].[Cl][Sn]([Cl])[Cl].[Cl][Sn]([Cl])[Cl].[Pt].c1cnc2c(c1)ccc1cccnc12,> 42.4,45.3 µM,> 48.3,15 µM,15.8,> 100,–,> 65.8,> 100 µM,–,–,–,–,–,–,–,–,–,–
Cc1cccc2c1nc1n2C(=O)c2ccccc2-1,> 100,–,> 100,> 100 µM,–,> 100,–,> 100,> 100 µM,> 100,–,–,–,–,–,–,–,–,–
O=C(Nc1ccc(-n2cc(-c3ccncc3)c(-c3ccc(O)c(Cl)c3)n2)cc1)Nc1cc(C(F)(F)F)cc(C(F)(F)F)c1,29.4,17.3 µM,17.9,12.4 µM,23.7,22,14.6 µM,9.95,13.9 µM,–,5.02 µM,2.59 µM,13.3,4.07,2.98,3.73 µM,5.93,3.61,2.81 µM
COc1cc2c(cc1O)NC(=O)[C@@H]1C[C@@H](O)CN1C2=O,> 100,> 100 µM,> 100,> 100 µM,> 100,> 100,> 100 µM,> 100,> 100 µM,–,–,–,–,–,–,–,–,–,–
CC(C)(C)C(=O)c1c(O)c2ccccc2c2ccccc2c1=O,> 100,> 100 µM,–,> 100 µM,> 100,> 100,> 100 µM,–,–,> 100,–,–,–,–,–,–,–,–,–
CC1CC(c2ccccc2)=Nc2ccccc2S1 (stereo unspecified),> 100,> 100 µM,> 100,> 100 µM,> 100,> 100,–,> 100,–,–,–,–,–,–,–,–,–,–,–
COC1=C(OC)C(=O)C(Cc2c(Cl)nc3sccn23)=C(C)C1=O,–,31.1 µM,34.1,25.1 µM,10.4,30.4,8.28 µM,15.7,13.7 µM,–,–,–,–,–,–,–,–,–,–
O=C1/C(=C\c2cccc(Oc3ccccc3)c2)SC(c2ccccc2)N1c1cc(Cl)ccc1Cl (stereo unspecified),–,> 100 µM,> 100,> 100 µM,38.2,41.6,> 100 µM,98.7,89.7 µM,45.5,–,–,–,–,–,–,–,–,–
COc1cc(C2c3cc4c(cc3[C@@H](Nc3ccc(F)cc3)C3COC[C@H]23)OCO4)cc(OC)c1O (stereo partly specified),–,> 25 µM,20.7,18 µM,–,> 25,15.1 µM,13.1,–,> 25,–,–,–,–,–,–,–,–,–
COC(=O)Nc1cc(OCCCOC(C)=O)c2[nH]c(C(=O)OC)cc2c1C[C@H](O)CO,> 100,> 100 µM,–,> 100 µM,> 100,> 100,> 100 µM,> 100,–,> 100,–,–,–,–,–,–,–,–,–
COc1ccccc1N=Nc1c(O)ccc2ccccc12,–,30.9 µM and 34.6 µM,> 100,> 62.4 µM and 40.4 µM,> 100,> 100,> 100 µM,> 100,16.2 µM and > 100 µM,> 100,–,–,–,–,–,25.1 µM and 55.7 µM,–,–,30.4 µM and > 100 µM
CCCCCCCCCCCC1=C(O)C(=O)C(CC2=C(O)C(=O)C(CCCCCCCCCCC)=C(O)C2=O)=C(O)C1=O,> 100,–,> 100,> 100 µM,> 100,> 100,> 100 µM,–,> 100 µM,> 100,–,–,–,–,–,–,–,–,–
Cc1ccc(S(=O)(=O)N/N=c2/sc3ccccc3n2C)cc1,> 100,> 100 µM,> 100,> 100 µM,> 100,> 100,> 100 µM,> 100,> 100 µM,–,–,–,–,–,–,–,–,–,–
O=C(/C=C\c1ccccc1)Oc1ccc(/C=C2\CCC/C(=C\c3ccc(OC(=O)/C=C\c4ccccc4)cc3)C2=O)cc1,–,> 100 µM,–,> 100 µM,> 100,> 100,> 100 µM,> 100,–,> 100,–,–,–,–,–,–,–,–,–
Clc1[nH]nc2ccccc12,> 100,> 100 µM,> 100,> 100 µM,–,> 100,> 100 µM,> 100,> 100 µM,> 100,–,–,–,–,–,–,–,–,–
